Molecular target: T1, His-His-USP7 (aa208-560, |C315A|) (Homo sapiens, UniProt Q93009, C315A)
T1 construct: His-His-USP7 (aa208-560, |C315A|); His-His (N)
Experiment: Evaluation of the inhibition of USP7 by the Fluorescence Intensity (FLINT) readings
Assay type: biochemical
Conditions: 0.25 nM His-His-USP7, compound incubated 60 minutes at 30° C., 500 nM Ubiquitin-Rhodamine-110 substrate; 50% reduction in kinetic rate
Experimental: USP7 activity was measured using Rhodamine-110 c-terminal labelled Ubiquitin as a substrate (UbiQ Bio). Incubation with USP7 results in the release of Rhodamine-110 leading to an increase in fluorescence which can be used in the continuous measurement of USP7 activity.
The USP7 reactions were performed in a 50 μL volume, in 384 well black solid low binding plates (Corning #3575). The reaction buffer consisted of 100 mM Bicine pH 8.0, 0.01% TritonX100, 1 mM TCEP, and 10% DMSO.
0.25 nM His-His-USP7 (aa208-560, |C315A|) was incubated with compound (final concentration 10% DMSO) for 60 minutes at 30° C. The reaction was then initiated by the addition of 500 nM Ubiquitin-Rhodamme-110 substrate and the plate read every 3 minutes for 21 minutes to measure the release of Rhodamine-110. Fluorescence Intensity (FLINT) readings were measured using a […] plate reader (Ex.485 nm, Em.535 nm).
The inhibition of increasing doses of compound was expressed as a percentage reduction in kinetic rate compared to the kinetic rates established between ‘DMSO only’ and ‘total inhibition’ controls (no USP7). The inhibitory concentrations that gave a 50% reduction in kinetic rate (IC50) were determined, from 11-point dose response cures, in XL-Fit using a 4-Parameter Logistic Model 205 (Sigmoidal Dose-Response Model).

T1 sequence (Q93009 208-560 C315A): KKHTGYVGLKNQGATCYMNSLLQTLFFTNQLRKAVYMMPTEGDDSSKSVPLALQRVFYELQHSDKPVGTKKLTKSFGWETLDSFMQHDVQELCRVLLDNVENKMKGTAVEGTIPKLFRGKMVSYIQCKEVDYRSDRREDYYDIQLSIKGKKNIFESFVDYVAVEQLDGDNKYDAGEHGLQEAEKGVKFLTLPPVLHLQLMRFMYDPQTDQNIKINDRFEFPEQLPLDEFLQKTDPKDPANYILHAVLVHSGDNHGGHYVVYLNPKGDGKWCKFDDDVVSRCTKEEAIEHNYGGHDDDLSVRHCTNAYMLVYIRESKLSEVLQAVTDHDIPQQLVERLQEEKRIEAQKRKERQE

Compound | IC50
COc1cccc(Oc2ncn(CC3(O)CCN(C(=O)[C@@H]4CCC(F)(F)C[C@H]4c4ccccc4)CC3)c(=O)c2N)c1 [Example 4, 5-amino-3-({1-[(1R,2R)-4,4-difluoro-2-phenylcyclohexane-1-carbonyl]-4-hydroxypiperidin-4-yl}methyl)-6-(3-methoxyphenoxy)pyrimidin-4(3H)-one] | 93.8 nM
Nc1c(Oc2cc(F)cc(F)c2)ncn(CC2(O)CCN(C(=O)[C@@H]3CCC(F)(F)C[C@H]3c3ccccc3)CC2)c1=O [Example 8, 5-amino-6-(3,5-difluorophenoxy)-3-({1-[(1R,2R)-4,4-difluoro-2-phenylcyclohexane-1-carbonyl]-4-hydroxypiperidin-4-yl}methyl)pyrimidin-4(3H)-one] | 472 nM
Nc1c(Oc2ccc(CCF)cc2)ncn(CC2(O)CCN(C(=O)[C@@H]3CCC(F)(F)C[C@H]3c3ccccc3)CC2)c1=O [Example 39, 5-amino-3-({1-[(1R,2R)-4,4-difluoro-2-phenylcyclohexane-1-carbanyl]-4-hydroxypiperidin-4-yl}methyl)-6-[4-(2-fluoroethyl)phenoxy]pyrimidin4(3H)-one] | 116 nM
N#Cc1ccc(Oc2ncn(CC3(O)CCN(C(=O)[C@@H]4CCC(F)(F)C[C@H]4c4ccccc4)CC3)c(=O)c2N)cc1Cl [Example 51, 4-{[5-amino-({1-[(1R,2R)-4,4difluoro-2-phenylcyclohexane-1-carbonyl]-4-hydroxypiperidin-4-yl}methyl)-6-oxo-1,6-dihydropyrimidin-4-yl]oxy}-2-chlorobenzonitrile] | 120 nM
COC(=O)c1cccc(Oc2ncn(CC3(O)CCN(C(=O)[C@@H]4CCC(F)(F)C[C@H]4c4ccccc4)CC3)c(=O)c2N)c1 [Example 27, methyl 3-{[5-amino-1-({1-[(1R,2R)-4,4-difluoro-2-phenylcyclohexane-1-carbonyl]-4-hydroxypiperidin-4-yl}methyl)-6-oxo-1,6-dihydropyrimidin-4-yl]oxy}benzoate] | 85 nM
Nc1c(Oc2ccc(CC(F)(F)F)cc2)ncn(CC2(O)CCN(C(=O)[C@@H]3CCC(F)(F)C[C@H]3c3ccccc3)CC2)c1=O [Example 37, 5-amino-3-({1-[(1R,2R)-4,4-difluoro-2-phenylcyclohexane-1-carbonyl]-4-hydroxypiperidin-4-yl}methyl)-6-[4-(2,2,2-trifluoroethyl)phenoxyl]pyrimidin-4(3H)-one] | 158 nM
Nc1c(Oc2ccc(F)c(OC(F)(F)F)c2)ncn(CC2(O)CCN(C(=O)[C@@H]3CCC(F)(F)C[C@H]3c3ccccc3)CC2)c1=O [Example 40, 5-amino-3-({1-[(1R,2R)-4,4-difluoro-2-phenylcyclohexane-1-carbonyl]-4-hydroxypiperidin-4-yl}methyl)-6-[4-fluoro-3-(trifluoromethoxy)phenoxy]pyrimidin-4(3H)-one] | 132 nM
Nc1c(Oc2cccc(F)c2)ncn(CC2(O)CCN(C(=O)[C@@H]3CCC(F)(F)C[C@H]3c3ccccc3)CC2)c1=O [Example 6, 5-amino-3-({1-[(1R,2R)-4,4-difluoro-2-phenylcyclohexane-1-carbonyl]-4-hydroxypiperidin-4-yl}methyl)-6-(3-fluorophenoxy)pyrimidin-4(3H)-one] | 183 nM
Nc1c(Oc2cccc(C(F)(F)F)c2)ncn(CC2(O)CCN(C(=O)[C@@H]3CCC(F)(F)C[C@H]3c3ccccc3)CC2)c1=O [Example 22, 5-amino-3-({1-[(1R,2R)-4,4-difluoro-2-phenylcyclohexane-1-carbonyl]-4-hydroxypiperidin-4-yl}methyl)-6-[3-(trifluoromethyl)phenoxy]pyrimidin-4(3H)-one] | 264 nM

The next lines start with the values.

IC50 | Compound
152 nM | Nc1c(Oc2cnc3cc[nH]c3c2)ncn(CC2(O)CCN(C(=O)[C@@H]3CCC(F)(F)C[C@H]3c3ccccc3)CC2)c1=O [Example 106, 5-amino-3-([1-[(1R,2R)-4,4-difluoro-2-phenylcyclohexane-1-carbonyl]-4-hydroxypiperidin-4-yl]methyl)-6-[(1H-pyrrolo[3,2-b]pyridin-6-yl)oxy]pyrimidin-4(3H)-one]
46.6 nM | CC1(F)CC[C@@H](C(=O)N2CCC(O)(Cn3cnc(-c4ccc(F)cc4)c(N)c3=O)CC2)[C@H](c2ccccc2)C1 (relative stereo) [Example 127, rel-5-amino-3-[(1-{[(1R,2R)-4-fluoro-4-methyl-2-phenylcyclohexyl]carbonyl}-4-hydroxypiperidin-4-yl)methyl]-6-(4-fluorophenyl)pyrimidin-4-one]
1620 nM | Nc1c(Oc2cccc(C(=O)O)c2)ncn(CC2(O)CCN(C(=O)[C@@H]3CCC(F)(F)C[C@H]3c3ccccc3)CC2)c1=O [Example 63]
70.8 nM | Nc1c(Oc2ccc(CCC3CCNCC3)cc2)ncn(CC2(O)CCN(C(=O)[C@@H]3CCC(F)(F)C[C@H]3c3ccccc3)CC2)c1=O [Example 112, 5-amino-3-([1-[(1R,2R)-4,4-difluoro-2-phenylcyclohexane-1-carbonyl]-4-hydroxypiperidin-4-yl]methyl)-6-[4-[2-(piperidin-4-yl)ethyl]phenoxy]pyrimidin-4(3H)-one]
179 nM | C#C[C@@]1(OC)CC[C@@H](C(=O)N2CCC(O)(Cn3cnc(Oc4ccc(F)cc4)c(N)c3=O)CC2)[C@H](c2ccccc2)C1 [Example 155, 5-amino-3-[(1-{[(1R,2R,4R)-4-ethynyl-4-methoxy-2-phenylcyclohexyl]carbonyl}-4-hydroxypiperidin-4-yl)methyl]-6-(4-fluorophenoxy)pyrimidin-4-one]
403 nM | NC(=O)c1ccc(Oc2ncn(CC3(O)CCN(C(=O)[C@@H]4CCC(F)(F)C[C@H]4c4ccccc4)CC3)c(=O)c2N)cc1F [Example 81, 4-{[5-amino-1-({1-[(1R,2R)-4,4-difluoro-2-phenylcyclohexane-1-carbonyl]-4-hydroxypiperidin-4-yl}methyl)-6-oxo-1,6-dihydropyrimidin-4-yl]oxy}-2-fluorobenzamide]
439 nM | N#Cc1ccc(Oc2ncn(CC3(O)CCN(C(=O)[C@@H]4CCC(F)(F)C[C@H]4c4ccccc4)CC3)c(=O)c2N)c(Cl)c1 [Example 53, 4-{[5-amino-1-([1-[(1R,2R)-4,4-difluoro-2-phenylcyclohexane-1-carbanyl]-4-hydroxypiperidin-4-yl]methyl)-6-oxo-1,6-dihydropyrimidin-4-yl]oxy}-3-chlorobenzonitrile]
67 nM | NC(=O)c1ccc(Oc2ncn(CC3(O)CCN(C(=O)[C@@H]4CCC(F)(F)C[C@H]4c4ccccc4)CC3)c(=O)c2N)cc1 [Example 58, 4-{[5-amino-1-({1-[(1R,2R)-4,4-difluoro-2-phenylcyclohexane-1-carbonyl]-4-hydroxypiperidin-4-yl}methyl)-6-oxo-1,6-dihydropyrimidin-4-yl]oxy}benzamide]
138 nM | CO[C@]1(C(=O)N2CCC(O)(Cn3cnc(Oc4ccc(F)cc4)c(N)c3=O)CC2)CC[C@H](C#Cc2nccn2C)C[C@@H]1c1ccccc1 [Example 160, 5-amino-6-(4-fluorophenoxy)-3-[(4-hydroxy-1-{[(1R,2R,4S)-1-methoxy-4-[2-(1-methylimidazol-2-yl)ethynyl]-2-phenylcyclohexyl]carbonyl}piperidin-4-yl)methyl]pyrimidin-4-one]
228 nM | Nc1c(Oc2ccc(F)cc2)ncn(C[C@]2(O)CCN(C(=O)[C@@H]3CCC(F)(F)C[C@H]3c3ccccc3)CC2(F)F)c1=O [Example 79, 5-amino-3-({(4R)-1-[(1R,2R)-4,4-difluoro-2-phenylcyclohexane-1-carbonyl]-3,3-difluoro-4-hydroxypiperidin-4-yl}methyl)-6-(4-fluorophenoxy)pyrimidin-4(3H)-one]
289 nM | C#C[C@@]1(O)CC[C@@H](C(=O)N2CCC(O)(Cn3cnc(Oc4ccc(F)cc4)c(N)c3=O)CC2)[C@H](c2ccccc2)C1 (relative stereo) [Example 91, rel-5-amino-3-([1-[(1R,2R,4R)-4-ethynyl-4-hydroxy-2-phenyl-cyclohexanecarbonyl]-4-hydroxypiperidin-4-yl]methyl)-6-(4-fluorophenoxy)-3,4-dihydropyrimidin-4-one]
21.8 nM | Nc1c(Oc2ccc(F)cc2)ncn(CC2(O)CCN(C(=O)[C@@H]3CC[C@@](F)(C#Cc4ccccn4)C[C@H]3c3ccccc3)CC2)c1=O [Example 131, 5-amino-3-[(1-{[(1R,2R,4S)-4-fluoro-2-phenyl-4-[2-(pyridin-2-yl)ethynyl]cyclohexyl]carbonyl}-4-hydroxypiperidin-4-yl)methyl]-6-(4-fluorophenoxy)pyrimidin-4-one]
363 nM | Cn1ccnc1C[C@@]1(O)CC[C@@H](C(=O)N2CCC(O)(Cn3cnc(Oc4ccc(F)cc4)c(N)c3=O)CC2)[C@H](c2ccccc2)C1 (relative stereo) [Example 101, rel-5-amino-6-(4-fluorophenoxy)-3-({4-hydroxy-1-[(1R,2R,4R)-4-hydroxy-4-[(1-methyl-1H-imidazol-2-yl)methyl]-2-phenyl-cyclohexanecarbonyl]piperidin-4-yl)}methyl)-3,4-dihydropyrimidin-4-one]
212 nM | Nc1c(Oc2cccnc2)ncn(CC2(O)CCN(C(=O)C3CCC(F)(F)CC3c3ccccc3)CC2)c1=O (stereo not drawn) [Example 84, 5-amino-3-({1-[(1,2-trans)-4,4-difluoro-2-phenylcyclohexane-1-carbonyl]-4-hydroxypiperidin-4-yl}methyl)-6-[(pyridin-3-yl)oxy]pyrimidin-4(3H)-one]

From patent US20210221785A1, “AMINO-PYRIMIDONYL DERIVATIVES, A PROCESS FOR THEIR PREPARATION AND PHARMACEUTICAL COMPOSITIONS CONTAINING THEM” (LES LABORATOIRES SERVIER, priority 2018, published 2021)
